Measured values as given in article PMC4412663, “Pathway for Biodegrading Microcystin-YR by Sphingopyxis sp. USTB-05” (PLoS ONE, 2015).

Legend:
Sphingopyxis sp. USTB-05 = conditions: cited from earlier work
[1] = tested on: crude enzymes (CEs) of Sphingopyxis sp. USTB-05; conditions: cited from earlier work
[2] = tested on: crude enzymes (CEs) of Sphingopyxis sp. USTB-05; assay: Enzymatic biodegradation by crude enzymes (CEs) of Sphingopyxis sp. USTB-05; format: in vitro ADME
Experimental: At logarithmic growth phase of the third day, the culture solution of Sphingopyxis sp. USTB-05 was centrifuged at 8,000 r/min for 20 min, and then the supernatant was decanted. The pelleted cells were washed three times with 50 mmol/L phosphate buffer solution (PBS, pH 7.0). The harvested cells were resuspended in 20 mL PBS and disrupted using an ultrasonic disruptor with an output power of 600 W for 15 min at 4°C. The cell debris was removed by centrifugation at 12,000 r/min for 30 min. The supernatant was collected, and after handling by 3500 MWCO dialysis bag small molecules such as Tyr was removed, it was used as CEs in the enzymatic biodegradation of MC-YR and its protein profile was determined using sodium dodecyl sulfate-polyacrylamide gel electrophoresis (SDS-PAGE) on 12% polyacrylamide gel. […].
The total biodegradation reaction volume was 5 mL containing 14.8 mg/L MC-YR and 103.6 mg/L protein in PBS in a 10 mL centrifuge tube. The reaction was at 30°C with the shake rate of 200 r/min. […]
MC-YR and its enzymatic biodegradation products were firstly measured using a HPLC system (Shimadzu LC-10ATVP, Shimadzu Co., Ltd., Japan) with a ultraviolet (UV) Diode Array Detector at 238 nm and 230 nm using a Agilent TC-C18 column (4.6 mm×250 mm) (Agilent, 1200 series, USA). […]

## microcystin-LR [MC-LR]
Sphingopyxis sp. USTB-05
  time to total removal by USTB-05: ≤ 20 h
[1]
  time to total removal by CEs of USTB-05: ≤ 10 h

## microcystin-RR [MC-RR]
Sphingopyxis sp. USTB-05
  time to complete biodegradation by Sphingopyxis sp. USTB-05: ≤ 36 h

## microcystin-YR [MC-YR]
[2]
  average biodegradation rate of MC-YR: 1.5 mg/L per hour
[2]; pH 7
  time to complete removal of MC-YR by CEs: ≤ 10 h
